Drawing on patent US20260325533A1, “CDK INHIBITOR COMPOUNDS” (ALEKSIA THERAPEUTICS, INC., priority 2023, published 2026), this text covers IC50 for 19 compounds.

What all share (type): biochemical
One assay concerns the target CDK2/CCNE1 (Homo sapiens, UniProt P24941). Description: CDK2 homogeneous time-resolved fluorescence (HTRF) kinase assay. The following applies: CDK2/CCNE. The essentials:
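3 nM CDK2/CCNE1 was preincubated with compound for 20 min at 23 °C in HEPES buffer (pH not stated), then reacted 60 min with 1 mM ATP and 50 nM ULight-4E-BP1 (Thr37/46) peptide. After EDTA stop, Eu-anti-phospho-4E-BP1 antibody (2 nM) was added for 60 min and TR-FRET read at 665 nm.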
For orientation: TR-FRET usually uses a lanthanide donor and a delayed reading to cut background.

For a further assay, the target named is CDK4/CCND3 (Homo sapiens, UniProt P11802). Description: CDK4 homogeneous time-resolved fluorescence (HTRF) kinase assay. Particulars: CDK4/CCND. The gist of the method:
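Steps: compound plus 1.5 nM CDK4/CCND3, 20 min, 23 °C; add 1 mM ATP and 50 nM ULight-4E-BP1 (Thr37/46) peptide, 60 min; stop with 10 mM EDTA; add 2 nM Eu anti-phospho antibody, 60 min; read 665 nm. IC50 from 11-point half-log series starting 10 μM.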

In the next assay the target is CDK6/CCND1 (Homo sapiens, UniProt Q00534). Description: CDK6 homogeneous time-resolved fluorescence (HTRF) kinase assay. Particulars: CDK6/CCND. The essentials: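 Enzyme pre-incubated 20 min at 23 °C with compound, then reacted 60 min at 23 °C with 1 mM ATP and 50 nM ULight-4E-BP1 (Thr37/46) peptide; 1 nM enzyme, 1% DMSO. EDTA-stopped, Eu-anti-phospho antibody TR-FRET read (665 nm or 665/615 ratio); 11-point half-log titration from 10 μM gave IC50.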
CDK6/CCND1, sequence (Q00534 whole entry): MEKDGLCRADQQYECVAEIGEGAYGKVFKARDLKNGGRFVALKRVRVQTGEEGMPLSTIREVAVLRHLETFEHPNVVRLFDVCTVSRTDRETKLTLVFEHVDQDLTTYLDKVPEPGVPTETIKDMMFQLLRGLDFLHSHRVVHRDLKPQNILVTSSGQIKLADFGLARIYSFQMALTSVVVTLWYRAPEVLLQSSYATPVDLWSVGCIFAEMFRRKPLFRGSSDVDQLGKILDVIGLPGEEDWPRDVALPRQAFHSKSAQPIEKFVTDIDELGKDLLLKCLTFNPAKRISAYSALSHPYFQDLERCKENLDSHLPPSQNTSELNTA
CDK6/CCND1, sequence (P24385 whole entry partner): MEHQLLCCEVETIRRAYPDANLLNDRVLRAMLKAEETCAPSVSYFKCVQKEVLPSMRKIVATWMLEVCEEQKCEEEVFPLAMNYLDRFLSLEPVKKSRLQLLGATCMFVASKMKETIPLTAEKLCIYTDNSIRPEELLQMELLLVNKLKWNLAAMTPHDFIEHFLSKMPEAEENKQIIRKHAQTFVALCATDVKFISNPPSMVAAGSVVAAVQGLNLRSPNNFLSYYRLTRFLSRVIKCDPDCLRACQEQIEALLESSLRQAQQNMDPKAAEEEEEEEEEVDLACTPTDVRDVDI

For a further assay, the target named is CDK1/CCNB1 (Homo sapiens, UniProt P06493). Description: CDK1 homogeneous time-resolved fluorescence (HTRF) kinase assay. Particulars: CDK1/CCNB. The gist of the method:
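HTRF assay with 0.5 nM CDK1/CCNB1, 1 mM ATP, 50 nM ULight-eIF4E-BP1 (Thr37/46) peptide; compound preincubated 20 min, reaction 60 min at 23 °C, EDTA stop, Eu-anti-phospho antibody detection. 11-point half-log titration from 10 μM, 1% DMSO; IC50 from 665 nm or 665/615 signal.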

Setting [1] is: 25-250 nM marked x, read-out: CDK2/CCNE IC50 25-250 nM.
The mark [2] stands for this setting: >250 nM marked x, read-out: CDK4/CCND IC50 >250 nM.
Where [3] appears, read: >250 nM marked x, read-out: CDK6/CCND IC50 >250 nM.
[4] abbreviates: >250 nM marked x, read-out: CDK1/CCNB IC50 >250 nM.
[5] abbreviates: 25-250 nM marked x, read-out: CDK4/CCND IC50 25-250 nM.
Setting [6] is: 25-250 nM marked x, read-out: CDK6/CCND IC50 25-250 nM.
[7] abbreviates: >250 nM marked x, read-out: CDK2/CCNE IC50 >250 nM.
Where [8] appears, read: <25 nM, read-out: CDK2/CCNE IC50 <25 nM.

The structures appear in SMILES notation. Where two headings read alike, the source gives them in different places.

CDK1/CCNB1, sequence (P06493 whole entry): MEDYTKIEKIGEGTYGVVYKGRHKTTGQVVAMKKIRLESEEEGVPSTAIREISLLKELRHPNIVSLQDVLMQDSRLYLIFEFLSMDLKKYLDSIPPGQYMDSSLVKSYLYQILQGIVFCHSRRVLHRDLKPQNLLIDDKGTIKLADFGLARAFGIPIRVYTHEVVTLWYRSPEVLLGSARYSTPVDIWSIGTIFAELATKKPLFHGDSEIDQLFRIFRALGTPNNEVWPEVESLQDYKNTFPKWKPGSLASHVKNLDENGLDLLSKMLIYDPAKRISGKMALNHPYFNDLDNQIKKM
CDK1/CCNB1, sequence (P14635 whole entry partner): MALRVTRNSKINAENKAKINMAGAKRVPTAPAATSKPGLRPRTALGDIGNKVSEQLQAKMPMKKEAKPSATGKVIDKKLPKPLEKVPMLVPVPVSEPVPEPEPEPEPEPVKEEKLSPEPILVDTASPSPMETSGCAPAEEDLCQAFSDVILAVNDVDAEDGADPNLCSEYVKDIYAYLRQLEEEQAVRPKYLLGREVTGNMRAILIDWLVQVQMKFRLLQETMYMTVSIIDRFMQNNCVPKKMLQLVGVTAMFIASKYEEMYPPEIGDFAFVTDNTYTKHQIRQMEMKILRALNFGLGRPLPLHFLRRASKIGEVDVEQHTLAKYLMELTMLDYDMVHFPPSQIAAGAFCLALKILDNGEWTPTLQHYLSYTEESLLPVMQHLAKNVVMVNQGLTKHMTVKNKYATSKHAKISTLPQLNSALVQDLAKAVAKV
CDK4/CCND3, sequence (P11802 whole entry): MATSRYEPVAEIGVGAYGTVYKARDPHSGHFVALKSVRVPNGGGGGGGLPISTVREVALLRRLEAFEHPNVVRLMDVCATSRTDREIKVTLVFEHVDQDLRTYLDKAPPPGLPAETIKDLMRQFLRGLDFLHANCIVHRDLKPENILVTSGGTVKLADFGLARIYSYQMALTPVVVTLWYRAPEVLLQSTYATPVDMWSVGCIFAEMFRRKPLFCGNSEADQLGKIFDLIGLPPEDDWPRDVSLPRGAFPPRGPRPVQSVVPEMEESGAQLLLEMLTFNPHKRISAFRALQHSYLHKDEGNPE
CDK4/CCND3, sequence (P30281 whole entry partner): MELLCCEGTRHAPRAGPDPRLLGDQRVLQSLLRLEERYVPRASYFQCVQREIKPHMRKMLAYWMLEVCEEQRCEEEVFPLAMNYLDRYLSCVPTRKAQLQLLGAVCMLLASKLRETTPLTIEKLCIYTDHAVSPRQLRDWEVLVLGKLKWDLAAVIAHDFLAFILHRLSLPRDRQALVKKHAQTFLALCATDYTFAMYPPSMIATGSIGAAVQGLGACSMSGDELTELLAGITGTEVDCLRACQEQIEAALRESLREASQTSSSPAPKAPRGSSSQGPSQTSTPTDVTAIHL

For `Cc1c(-c2nccc3cnc(Nc4ccc(S(C)(=O)=O)cc4)cc23)ccc2c1cnn2C1CCN(C)CC1` [Ex 242, 5-(4-methyl-1-(1-methylpiperidin-4-yl)-1H-indazol-5-yl)-N-(4-(methylsulfonyl)phenyl)-2,6-naphthyridin-3-amine], the IC50 on CDK2/CCNE1 (setting [1]) is 25 to 250 nM; on CDK4/CCND3 (setting [2]) it was greater than 250 nM; at CDK6/CCND1 (setting [3]), greater than 250 nM; on CDK1/CCNB1 (setting [4]) it was greater than 250 nM.
For the compound `Cc1c(-c2nccc3cnc(Nc4ccc(S(C)(=O)=O)cc4)cc23)ccc2c1cnn2CC1CN(C)C1` [Ex 243, 5-(4-methyl-1-((1-methylazetidin-3-yl)methyl)-1H-indazol-5-yl)-N-(4-(methylsulfonyl)phenyl)-2,6-naphthyridin-3-amine], the IC50 at CDK2/CCNE1 (setting [1]) is 25 to 250 nM; on CDK4/CCND3 (setting [5]), 25 to 250 nM; on CDK6/CCND1 (setting [6]) it was 25 to 250 nM; on CDK1/CCNB1 (setting [4]), greater than 250 nM.
For the compound `CC(C)(C)c1nccc2cnc(Nc3ccc(S(C)(=O)=O)cc3)cc12` [Ex 244, 5-(tert-butyl)-N-(4-(methylsulfonyl)phenyl)-2,6-naphthyridin-3-amine], the IC50 was 25 to 250 nM on CDK2/CCNE1 (setting [1]), greater than 250 nM at CDK4/CCND3 (setting [2]), 25 to 250 nM on CDK6/CCND1 (setting [6]) and greater than 250 nM on CDK1/CCNB1 (setting [4]).
Turning to `C=CS(=O)(=O)c1ccc(Nc2cc3c(-c4ccc5[nH]ncc5c4C)nccc3cn2)cc1` [Ex 245, 5-(4-methyl-1H-indazol-5-yl)-N-(4-(vinylsulfonyl)phenyl)-2,6-naphthyridin-3-amine], the IC50 on CDK2/CCNE1 (setting [1]) was 25 to 250 nM; on CDK4/CCND3 (setting [2]), greater than 250 nM; at CDK6/CCND1 (setting [3]), greater than 250 nM; on CDK1/CCNB1 (setting [4]) it was greater than 250 nM.
In the case of `CC(=O)N[C@H]1CC[C@H](C#Cc2nccc3cnc(Nc4ccc(S(C)(=O)=O)cc4)cc23)CC1` [Ex 246, N-((1r,4r)-4-((7-((4-(methylsulfonyl)phenyl)amino)-2,6-naphthyridin-1-yl)ethynyl)cyclohexyl)acetamide], the IC50 on CDK2/CCNE1 (setting [1]) was 25 to 250 nM; at CDK4/CCND3 (setting [5]), 25 to 250 nM; at CDK6/CCND1 (setting [6]), 25 to 250 nM; at CDK1/CCNB1 (setting [4]) it was greater than 250 nM.
On to `CS(=O)(=O)c1ccc(Nc2cc3c(C#C[C@H]4CC[C@H](N)CC4)nccc3cn2)cc1` [Ex 247, 5-(((1r,4r)-4-aminocyclohexyl)ethynyl)-N-(4-(methylsulfonyl)phenyl)-2,6-naphthyridin-3-amine], for which the IC50 on CDK2/CCNE1 (setting [1]) was 25 to 250 nM; at CDK4/CCND3 (setting [5]) it was 25 to 250 nM; on CDK6/CCND1 (setting [6]), 25 to 250 nM; on CDK1/CCNB1 (setting [4]), greater than 250 nM.
Turning to `CS(=O)(=O)c1ccc(Nc2cc3c(N4CC5(CN(c6ccc(C#N)cc6)C5)C4)nccc3cn2)cc1` [Ex 248, 4-(6-(7-((4-(methylsulfonyl)phenyl)amino)-2,6-naphthyridin-1-yl)-2,6-diazaspiro[3.3]heptan-2-yl)benzonitrile], the IC50 at CDK2/CCNE1 (setting [7]), on CDK4/CCND3 (setting [2]), at CDK6/CCND1 (setting [3]) and at CDK1/CCNB1 (setting [4]) was greater than 250 nM in each case.
Turning to `CN(C)C/C=C/S(=O)(=O)c1ccc(Nc2cc3c(N4CCC(C#N)CC4)nccc3cn2)cc1` [Ex 249, (E)-1-(7-((4-((3-(dimethylamino)prop-1-en-1-yl)sulfonyl)phenyl)amino)-2,6-naphthyridin-1-yl)piperidine-4-carbonitrile], the IC50 was greater than 250 nM at CDK2/CCNE1 (setting [7]), 25 to 250 nM on CDK4/CCND3 (setting [5]), greater than 250 nM at CDK6/CCND1 (setting [3]) and greater than 250 nM on CDK1/CCNB1 (setting [4]).
`Cc1c(-c2nccc3cnc(Nc4ccc(S(C)(=O)=O)cc4)cc23)ccc2nn(CC(N)=O)cc12` [Ex 250, 2-(4-methyl-5-(7-((4-(methylsulfonyl)phenyl)amino)-2,6-naphthyridin-1-yl)-2H-indazol-2-yl)acetamide]: the IC50 is less than 25 nM at CDK2/CCNE1 (setting [8]), 25 to 250 nM on CDK4/CCND3 (setting [5]), 25 to 250 nM at CDK6/CCND1 (setting [6]) and greater than 250 nM on CDK1/CCNB1 (setting [4]).
For `CS(=O)(=O)N1CCC(Nc2cc3c(C#Cc4ccc(C#N)cc4)nccc3cn2)CC1` [Ex 251, 4-((7-((1-(methylsulfonyl)piperidin-4-yl)amino)-2,6-naphthyridin-1-yl)ethynyl)benzonitrile], the IC50 at CDK2/CCNE1 (setting [8]) is less than 25 nM; at CDK4/CCND3 (<25 nM, read-out: CDK4/CCND IC50 <25 nM), less than 25 nM; at CDK6/CCND1 (setting [6]), 25 to 250 nM; at CDK1/CCNB1 (setting [4]), greater than 250 nM.
Consider `O=C(O)c1ccc(Nc2cc3c(C4=CCCCC4)nccc3cn2)cc1` [Ex 253, 4-((5-(cyclohex-1-en-1-yl)-2,6-naphthyridin-3-yl)amino)benzoic acid], for which the IC50 at CDK2/CCNE1 (setting [8]) was less than 25 nM; at CDK4/CCND3 (setting [5]), 25 to 250 nM; on CDK6/CCND1 (setting [6]) it was 25 to 250 nM; at CDK1/CCNB1 (setting [4]) it was greater than 250 nM.
Turning to `Cc1c(-c2nccc3cnc(Nc4ccc(S(C)(=O)=O)cc4)cc23)ccc2c1cnn2CCO` [Ex 267, 2-(4-methyl-5-(7-((4-(methylsulfonyl)phenyl)amino)-2,6-naphthyridin-1-yl)-1H-indazol-1-yl)ethan-1-ol], the IC50 on CDK2/CCNE1 (setting [8]) was less than 25 nM; on CDK4/CCND3 (setting [5]) it was 25 to 250 nM; on CDK6/CCND1 (setting [6]), 25 to 250 nM; at CDK1/CCNB1 (25-250 nM marked x, read-out: CDK1/CCNB IC50 25-250 nM), 25 to 250 nM.
As to `CCC1(CC)C(=O)Nc2cc(C#Cc3nccc4cnc(Nc5ccc(S(=O)(=O)C6CC(F)(F)C6)cc5OC)cc34)ccc21` [Ex 277, 6-((7-((4-((3,3-difluorocyclobutyl)sulfonyl)-2-methoxyphenyl)amino)-2,6-naphthyridin-1-yl)ethynyl)-3,3-diethylindolin-2-one], the IC50 is 25 to 250 nM on CDK2/CCNE1 (setting [1]), greater than 250 nM at CDK4/CCND3 (setting [2]), greater than 250 nM on CDK6/CCND1 (setting [3]) and greater than 250 nM at CDK1/CCNB1 (setting [4]).
As to `O=C1Nc2cc(C#Cc3nccc4cnc(Nc5ccc(S(=O)(=O)CC(F)(F)F)cc5)cc34)ccc2C12CC2` [Ex 282, 6'-((7-((4-((2,2,2-trifluoroethyl)sulfonyl)phenyl)amino)-2,6-naphthyridin-1-yl)ethynyl)spiro[cyclopropane-1,3'-indolin]-2'-one], the IC50 on CDK2/CCNE1 (setting [8]) is less than 25 nM; on CDK4/CCND3 (setting [2]), greater than 250 nM; on CDK6/CCND1 (setting [3]), greater than 250 nM; on CDK1/CCNB1 (setting [4]) it was greater than 250 nM.
Turning to `CCC1(CC)C(=O)Nc2cc(C#Cc3nccc4cnc(Nc5ccc(S(=O)(=O)CC(F)(F)F)cc5F)cc34)ccc21` [Ex 283, 3,3-diethyl-6-((7-((2-fluoro-4-((2,2,2-trifluoroethyl)sulfonyl)phenyl)amino)-2,6-naphthyridin-1-yl)ethynyl)indolin-2-one], the IC50 on CDK2/CCNE1 (setting [7]), on CDK4/CCND3 (setting [2]), on CDK6/CCND1 (setting [3]) and on CDK1/CCNB1 (setting [4]) was greater than 250 nM each time.
Take `CCC1(CC)C(=O)Nc2cc(C#Cc3nccc4cnc(Nc5ccc(S(=O)(=O)CC(F)(F)F)cc5C)cc34)ccc21` [Ex 286, 3,3-diethyl-6-((7-((2-methyl-4-((2,2,2-trifluoroethyl)sulfonyl)phenyl)amino)-2,6-naphthyridin-1-yl)ethynyl)indolin-2-one]: the IC50 on CDK2/CCNE1 (setting [1]) was 25 to 250 nM; at CDK4/CCND3 (setting [2]), greater than 250 nM; on CDK6/CCND1 (setting [3]), greater than 250 nM; at CDK1/CCNB1 (setting [4]), greater than 250 nM.
Take `CC1(C)C(=O)Nc2cc(C#Cc3nccc4cnc(Nc5ccc(S(C)(=O)=O)cc5C(F)F)cc34)ccc21` [Ex 312, 6-((7-((2-(difluoromethyl)-4-(methylsulfonyl)phenyl)amino)-2,6-naphthyridin-1-yl)ethynyl)-3,3-dimethylindolin-2-one]: the IC50 at CDK2/CCNE1 (setting [8]) is less than 25 nM; at CDK4/CCND3 (setting [2]) it was greater than 250 nM; at CDK6/CCND1 (setting [3]) it was greater than 250 nM; on CDK1/CCNB1 (setting [4]) it was greater than 250 nM.
On to `CCC1(CC)C(=O)Nc2cc(C#Cc3nccc4cnc(Nc5ccc(S(=O)(=O)C(C)C)cc5OC)cc34)ccc21` [Ex 338, 3,3-diethyl-6-((7-((4-(isopropylsulfonyl)-2-methoxyphenyl)amino)-2,6-naphthyridin-1-yl)ethynyl)indolin-2-one], for which the IC50 was 25 to 250 nM at CDK2/CCNE1 (setting [1]), greater than 250 nM at CDK4/CCND3 (setting [2]), greater than 250 nM on CDK6/CCND1 (setting [3]) and greater than 250 nM at CDK1/CCNB1 (setting [4]).
In the case of `Cc1cc(S(C)(=O)=O)ccc1Nc1cc2c(C#Cc3cc4c(cc3F)C(C)(C)C(=O)N4)nccc2cn1` [Ex 342, 5-fluoro-3,3-dimethyl-6-((7-((2-methyl-4-(methylsulfonyl)phenyl)amino)-2,6-naphthyridin-1-yl)ethynyl)indolin-2-one], the IC50 at CDK2/CCNE1 (setting [8]) is less than 25 nM; on CDK4/CCND3 (setting [2]), greater than 250 nM; on CDK6/CCND1 (setting [3]), greater than 250 nM; at CDK1/CCNB1 (setting [4]), greater than 250 nM.
